According to patent publication US20150240204A1, “METHOD FOR POLYCLONAL STIMULATION OF T CELLS BY MOBILE NANOMATRICES” (MILTENYI BIOTEC GMBH, priority 2012, published 2015):

Legend:
Format in all cases: cell-based, human
[1] = tested on: CD8+ T cell subsets and PBMC from melanoma patients; assay: Fold expansion of MART-1 TCR transduced cultures; conditions: IL2, day 13-15 after stimulation
Description: CD8^+ T cell subsets from freshly isolated PBMC from melanoma patients were isolated and the stimulated with coated CD3 plus soluble CD28 (CD3+CD28 in the graph) or with CD3/CD28/CD2 coated MACSiBeads (MACSiBeads in the graph) or with CD3/CD28 Nanomatrix in the presence of IL2. After 2 days of stimulation cells have been transduced to express MART-1 TCR. In the graph is reported the fold expansion of each culture at day 13-15 after stimulation.
One important application for activating and expanding T cells and in particular purified cell subsets is their genetic manipulation, e.g. to introduce a certain antigen receptor with specificity for tumor antigens. We have used nanomatrices to activate purified naïve (TN, CD62L+CD45RA+), central memory (TCM, CD62L+CD45RA−) and effector (TEM, CD62L−CD45RA−) T cells and transduced them using a retroviral vector expressing a TCR specific for MART-1, a tumor antigen. To test the relative frequency of transgene expression in these T cell subsets we performed MHC-peptide Class I tetramer staining. All T cell subsets are efficiently transduced (>50%) independent on the stimulatory conditions we tested (FIG. 7). We also compared the in vitro expansion of the transduced T cells. As shown in FIG. 8 after 10 days we observed no differences with regard to expansion of the three subsets under all conditions. […]

[2] = tested on: naive CD4 and CD8 T cells; assay: Induction of early activation markers CD25/CD69, soluble versus nanomatrix-conjugated CD3
Description: (§1) FIG. 6: Comparison of soluble CD3 or CD28 antibodies to CD3 or CD28 antibodies conjugated to nanomatrices. Naive CD4 and CD8 T cells were isolated and stimulated in vitro in the presence of IL-2 using soluble CD3 (0-10000 ng/mL) w/o CD28 (A) or in the presence of soluble CD28 (200 ng/ml) (B) and compared to CD28 conjugated to nanomatrix (200 ng/ml) and analysed for early activation markers CD25/CD69 on day 5 or for expansion (C) on day 7. 2 donors were analysed in duplicates.
IL-2 was added to all cultures. […] In contrast the CD3 coated nanomatrix (100 ng/ml CD3) induced CD25/CD69 expression in 40-70% of the cells.

naive T cells = assay: Expansion of naive T cells, soluble versus nanomatrix-conjugated CD28 in presence of soluble CD3; conditions: soluble CD3 alone, day 7
Description: as §1
We also tested the effect of conjugation of CD28 antibodies to the nanomatrix. Since the effects of costimulation are best visualized under suboptimal CD3 stimulation, we titrated CD28 either soluble or conjugated to the nanomatrix in the presence of soluble CD3 to a culture of naïve T cells. […] In the presence of soluble CD28 however a 2-6 fold expansion was detectable but only at the highest tested dose of CD28 (10000 ng/ml).

For “soluble CD3: soluble anti-CD3 antibody (CD3 antibodies, clone OKT3)”, the fold expansion [1] was 57.61±17.75, the “up-regulation of early activation markers CD25 and CD69” value ([2]; 10-10000 ng/ml, without CD28, IL-2, day 5) was “did not induce any significant up-regulation” and the CD25/CD69 expression ([2]; highest tested doses 100-10000 ng/ml, with soluble CD28 200 ng/ml, IL-2, day 5) was 20-40 % of the cells. The “expansion of naive T cells” value (naive T cells) was “did not induce any expansion”.
